Test results published in US20230085307A1, “PYRIDAZINONE COMPOUND AND HERBICIDE” (NISSAN CHEMICAL CORPORATION, priority 2019, published 2023).

Tests used:
lambsquarters [1] = test: Test Example 4: herbicidal effect by soil treatment (Table 19, symbol O); type: in vivo, lambsquarters (Chenopodium album); details: for herbicidal effect on O: lambsquarters: amount of applied herbicide 320 g/ha
Method in brief: (§1)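 Pre-emergence style soil spray: seeds under ~1.5 cm sterilized diluvial soil received a uniform coat of emulsion diluted to the predetermined herbicide amount. Greenhouse 25–30° C; readout at week three on previously defined criteria.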

persian speedwell [2] = test: Test Example 5: herbicidal effect by foliage application, plastic box (Table 20, symbol R); type: in vivo, Persian speedwell (Veronica persica); details: foliage application; for R: persian speedwell, herbicidal effect (criteria 0-5): AAH 320 g/ha
Method in brief: (§2)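 Plants were sown into sterilized diluvial soil under about 1.5 cm cover and kept in a greenhouse at 25° C. to 30° C. Fourteen days on, foliage received an even spray of the diluted emulsion. Herbicidal or crop effect was judged three weeks afterwards.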

southern crabgrass [3] = test: Test Example 5: herbicidal effect by foliage application, plastic box (Table 20, symbol F); type: in vivo, southern crabgrass (Digitaria ciliaris); details: foliage application; for F: southern crabgrass, herbicidal effect (criteria 0-5): AAH 320 g/ha
Method in brief: as §2

Japanese bulrush = test: Test Example 2: herbicidal activity, application during weed generation under submerged conditions (Table 17, symbol B); type: in vivo, Japanese bulrush (Schoenoplectus juncoides); details: application during weed generation, submerged conditions
Method in brief: (§3)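 Herbicide emulsion, diluted with water to the chosen amount, is applied onto 4 cm floodwater over alluvial soil where the weeds were co-sown and raised at 25–30° C. Application timing: 1–2 leaves. Assessment: three weeks afterwards.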

barnyard grass = test: Test Example 3: herbicidal effect by foliage application, Wagner pot (Table 18, symbol H); type: in vivo, barnyard grass (Echinochloa crus-galli); details: for herbicidal effect on H: barnyard grass: amount of applied herbicide 320 g/ha
Method in brief: (§4)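 Plants were sown in alluvial soil held under 0.1–0.5 cm standing water and grown 14 days in a greenhouse at 25–30 °C. An emulsifiable formulation, water-diluted to the set dose, was then sprayed onto the foliage, and effects were scored three weeks later using previously defined criteria.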

velvetleaf = test: Test Example 4: herbicidal effect by soil treatment (Table 19, symbol M); type: in vivo, velvetleaf (Abutilon theophrasti); details: for herbicidal effect on M: velvetleaf: amount of applied herbicide 320 g/ha
Method in brief: as §1

Italian ryegrass [4] = test: Test Example 5: herbicidal effect by foliage application, plastic box (Table 20, symbol K); type: in vivo, Italian ryegrass (Lolium multiflorum); details: foliage application; for K: Italian ryegrass, herbicidal effect (criteria 0-5): AAH 320 g/ha
Method in brief: as §2

Italian ryegrass [5] = test: Test Example 4: herbicidal effect by soil treatment (Table 19, symbol K); type: in vivo, Italian ryegrass (Lolium multiflorum); details: for herbicidal effect on K: Italian ryegrass: amount of applied herbicide 320 g/ha
Method in brief: as §1

Chinese sprangletop = test: Test Example 3: herbicidal effect by foliage application, Wagner pot (Table 18, symbol D); type: in vivo, chinese sprangletop (Leptochloa chinensis); details: for herbicidal effect on D: Chinese sprangletop: amount of applied herbicide 320 g/ha
Method in brief: as §4

late watergrass [6] = test: Test Example 2: herbicidal activity, application during weed generation under submerged conditions (Table 17, symbol A); type: in vivo, late watergrass (Echinochloa oryzicola); details: application during weed generation, submerged conditions
Method in brief: as §3

windgrass [7] = test: Test Example 5: herbicidal effect by foliage application, plastic box (Table 20, symbol L); type: in vivo, windgrass (Apera spica-venti); details: foliage application; for L: windgrass, herbicidal effect (criteria 0-5): AAH 320 g/ha
Method in brief: as §2

southern crabgrass [8] = test: Test Example 4: herbicidal effect by soil treatment (Table 19, symbol F); type: in vivo, southern crabgrass (Digitaria ciliaris); details: for herbicidal effect on F: southern crabgrass: amount of applied herbicide 320 g/ha
Method in brief: as §1

late watergrass [9] = test: Test Example 1: herbicidal activity, application before weed generation under submerged conditions (Table 16, symbol A); type: in vivo, late watergrass (Echinochloa oryzicola); details: for Herbicidal effect on A: late watergrass (grade 0-5): 320 g/ha applied herbicide
Method in brief: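 Emulsion formulation, water-diluted to set dose, was put onto the flooded surface (4 cm depth, alluvial soil) the same day weeds were sown and 2.5-leaf rice transplanted. After 3 weeks at 25-30 °C under glass, each species was rated 0 (≤5% kill) to 5 (≥90% kill).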

lambsquarters [10] = test: Test Example 5: herbicidal effect by foliage application, plastic box (Table 20, symbol O); type: in vivo, lambsquarters (Chenopodium album); details: foliage application; for O: lambsquarters, herbicidal effect (criteria 0-5): AAH 320 g/ha
Method in brief: as §2

persian speedwell [11] = test: Test Example 4: herbicidal effect by soil treatment (Table 19, symbol R); type: in vivo, Persian speedwell (Veronica persica); details: for herbicidal effect on R: persian speedwell: amount of applied herbicide 320 g/ha
Method in brief: as §1

blackgrass = test: Test Example 4: herbicidal effect by soil treatment (Table 19, symbol J); type: in vivo, blackgrass (Alopecurus myosuroides); details: for herbicidal effect on J: blackgrass: amount of applied herbicide 320 g/ha
Method in brief: as §1

windgrass [12] = test: Test Example 4: herbicidal effect by soil treatment (Table 19, symbol L); type: in vivo, windgrass (Apera spica-venti); details: for herbicidal effect on L: windgrass: amount of applied herbicide 320 g/ha
Method in brief: as §1

[13] = amount of applied herbicide 80 g/ha
[14] = 80 g/ha, three weeks after application
[15] = evaluated three weeks after application
[16] = 320 g/ha, evaluated three weeks after application

SMILES	herbicidal effect on O: lambsquarters (lambsquarters [1])	R: persian speedwell, herbicidal effect (criteria 0-5) (persian speedwell [2]; [15])	F: southern crabgrass, herbicidal effect (criteria 0-5) (southern crabgrass [3]; [15])	herbicidal effect rating, B: Japanese bulrush (Japanese bulrush; AAH 320 g/ha)	herbicidal effect on H: barnyard grass (barnyard grass)	herbicidal effect on M: velvetleaf (velvetleaf)	K: Italian ryegrass, herbicidal effect (criteria 0-5) (Italian ryegrass [4]; [15])	herbicidal effect on K: Italian ryegrass (Italian ryegrass [5])	herbicidal effect on D: Chinese sprangletop (Chinese sprangletop)	herbicidal effect rating, A: late watergrass (late watergrass [6]; AAH 320 g/ha)	L: windgrass, herbicidal effect (criteria 0-5) (windgrass [7]; [15])	herbicidal effect on F: southern crabgrass (southern crabgrass [8])	Herbicidal effect on A: late watergrass (grade 0-5) (late watergrass [9])	O: lambsquarters, herbicidal effect (criteria 0-5) (lambsquarters [10]; [15])	herbicidal effect on R: persian speedwell (persian speedwell [11])	herbicidal effect on J: blackgrass (blackgrass)	herbicidal effect on L: windgrass (windgrass [12])	other results
CCOc1ccccc1-c1sc2cc(OC)ccc2c1-c1c(O)c(C)nn(C)c1=O [3-070]	–	–	–	–	–	–	–	–	–	–	–	–	–	–	–	–	–	O: lambsquarters, herbicidal effect grade (lambsquarters [1]; [13]): 0 (Herbicidal rate of 5% or less (almost no effect)); R: persian speedwell, herbicidal effect grade (persian speedwell [2]; [14]): 5 (Herbicidal rate of 90% or more (almost completely withered)); F: southern crabgrass, herbicidal effect grade (southern crabgrass [3]; [14]): 5 (Herbicidal rate of 90% or more (almost completely withered)); herbicidal effect rating, B: Japanese bulrush (Japanese bulrush; AAH 80 g/ha): 5 (Herbicidal rate of 90% or more (almost completely withered)); herbicidal effect on barnyard grass (H) (barnyard grass; 80 g/ha): 5 (Herbicidal rate of 90% or more (almost completely withered)); M: velvetleaf, herbicidal effect grade (velvetleaf; [13]): 0 (Herbicidal rate of 5% or less (almost no effect)); K: Italian ryegrass, herbicidal effect grade (Italian ryegrass [4]; [14]): 4 (Herbicidal rate of 70% or more and less than 90%); K: Italian ryegrass, herbicidal effect grade (Italian ryegrass [5]; [13]): 0 (Herbicidal rate of 5% or less (almost no effect)); herbicidal effect on Chinese sprangletop (D) (Chinese sprangletop; 80 g/ha): 5 (Herbicidal rate of 90% or more (almost completely withered)); herbicidal effect rating, A: late watergrass (late watergrass [6]; AAH 80 g/ha): 3 (Herbicidal rate of 40% or more and less than 70%); L: windgrass, herbicidal effect grade (windgrass [7]; [14]): 5 (Herbicidal rate of 90% or more (almost completely withered)); F: southern crabgrass, herbicidal effect grade (southern crabgrass [8]; [13]): 4 (Herbicidal rate of 70% or more and less than 90%); Herbicidal effect, A: late watergrass (late watergrass [9]; [13]): 5 (Herbicidal rate of 90% or more (almost completely withered)); O: lambsquarters, herbicidal effect grade (lambsquarters [10]; [14]): 5 (Herbicidal rate of 90% or more (almost completely withered)); R: persian speedwell, herbicidal effect grade (persian speedwell [11]; [13]): 5 (Herbicidal rate of 90% or more (almost completely withered)); J: blackgrass, herbicidal effect grade (blackgrass; [13]): 0 (Herbicidal rate of 5% or less (almost no effect)); L: windgrass, herbicidal effect grade (windgrass [12]; [13]): 0 (Herbicidal rate of 5% or less (almost no effect))
COc1cccc(S(=O)(=O)Oc2c(C)nn(C)c(=O)c2-c2c(-c3ccc(OC(F)F)cc3)sc3ccc(F)cc23)c1 [2-313]	3 (Herbicidal rate of 40% or more and less than 70%)	5 (Herbicidal rate of 90% or more (almost completely withered))	4 (Herbicidal rate of 70% or more and less than 90%)	3 (Herbicidal rate of 40% or more and less than 70%)	5 (Herbicidal rate of 90% or more (almost completely withered))	4 (Herbicidal rate of 70% or more and less than 90%)	5 (Herbicidal rate of 90% or more (almost completely withered))	5 (Herbicidal rate of 90% or more (almost completely withered))	2 (Herbicidal rate of 20% or more and less than 40%)	3 (Herbicidal rate of 40% or more and less than 70%)	2 (Herbicidal rate of 20% or more and less than 40%)	0 (Herbicidal rate of 5% or less (almost no effect))	2 (Herbicidal rate of 20% or more and less than 40%)	5 (Herbicidal rate of 90% or more (almost completely withered))	5 (Herbicidal rate of 90% or more (almost completely withered))	0 (Herbicidal rate of 5% or less (almost no effect))	0 (Herbicidal rate of 5% or less (almost no effect))	–
Cc1nn(C)c(=O)c(-c2c(-c3ccc(SC(C)C)cc3)sc3ccc(F)cc23)c1O [2-252]	4 (Herbicidal rate of 70% or more and less than 90%)	–	–	3 (Herbicidal rate of 40% or more and less than 70%)	5 (Herbicidal rate of 90% or more (almost completely withered))	2 (Herbicidal rate of 20% or more and less than 40%)	–	3 (Herbicidal rate of 40% or more and less than 70%)	5 (Herbicidal rate of 90% or more (almost completely withered))	4 (Herbicidal rate of 70% or more and less than 90%)	–	2 (Herbicidal rate of 20% or more and less than 40%)	3 (Herbicidal rate of 40% or more and less than 70%)	–	5 (Herbicidal rate of 90% or more (almost completely withered))	0 (Herbicidal rate of 5% or less (almost no effect))	0 (Herbicidal rate of 5% or less (almost no effect))	herbicidal effect on R: persian speedwell (criteria 0-5) (persian speedwell [2]; [16]): 5 (Herbicidal rate of 90% or more (almost completely withered)); herbicidal effect on F: southern crabgrass (criteria 0-5) (southern crabgrass [3]; [16]): 4 (Herbicidal rate of 70% or more and less than 90%); herbicidal effect on K: Italian ryegrass (criteria 0-5) (Italian ryegrass [4]; [16]): 5 (Herbicidal rate of 90% or more (almost completely withered)); herbicidal effect on L: windgrass (criteria 0-5) (windgrass [7]; [16]): 5 (Herbicidal rate of 90% or more (almost completely withered)); herbicidal effect on O: lambsquarters (criteria 0-5) (lambsquarters [10]; [16]): 5 (Herbicidal rate of 90% or more (almost completely withered))
CCCC(=O)Oc1c(C)nn(C)c(=O)c1-c1c(-c2ccc(SC(C)C)cc2)sc2ccc(F)cc12 [2-253]	4 (Herbicidal rate of 70% or more and less than 90%)	5 (Herbicidal rate of 90% or more (almost completely withered))	4 (Herbicidal rate of 70% or more and less than 90%)	3 (Herbicidal rate of 40% or more and less than 70%)	5 (Herbicidal rate of 90% or more (almost completely withered))	1 (Herbicidal rate of 5% or more and less than 20%)	3 (Herbicidal rate of 40% or more and less than 70%)	0 (Herbicidal rate of 5% or less (almost no effect))	3 (Herbicidal rate of 40% or more and less than 70%)	3 (Herbicidal rate of 40% or more and less than 70%)	3 (Herbicidal rate of 40% or more and less than 70%)	0 (Herbicidal rate of 5% or less (almost no effect))	5 (Herbicidal rate of 90% or more (almost completely withered))	4 (Herbicidal rate of 70% or more and less than 90%)	2 (Herbicidal rate of 20% or more and less than 40%)	0 (Herbicidal rate of 5% or less (almost no effect))	0 (Herbicidal rate of 5% or less (almost no effect))	–
